In article PMC2737470 (Circulation research, 2009):

Assays:
[1] = target: carboxyl terminal domain of Cx43 (Cx43CT), recombinant; test: SPR
[2] = test system: N2a cell pairs expressing Cx43; test: Patch clamp, octanol-induced uncoupling of Cx43 channels; format: cell-based
[3] = test system: carboxyl terminal domain of Cx43 (Cx43CT); test: Surface plasmon resonance, peptide binding to immobilised Cx43CT; details: molecular weight-normalized responses, same sensor chip
[4] = test system: N2a cells expressing Cx40; test: Patch clamp, octanol-induced uncoupling of Cx40 channels; format: cell-based; details: N2a cells expressing Cx40, peptide in pipette
recombinant Cx40CT = test: Surface plasmon resonance with recombinant Cx40CT; format: binding; details: Online Figure IV
recombinant Cx43CT = test: NMR 15N-HSQC of Cx43CT titrated with peptide; format: binding; details: Cx43CT titrated with peptide to 1:500 and 1:900 molar ratio

## CyRP-71 (cyclo-RRPPYRQ as printed in Table 1) (peptide)
[1]
  SPR response amplitude normalized by molecular weight: 33.9 a.u.

## Cyclo-RRPPYQ (head to tail) [CyRP-62]
[2]; peptide 100 μM in patch pipette
  cells remaining coupled after ten minutes of octanol superfusion: 100%

## Cyclo-RRPPYRQ (head to tail) [CyRP-71]
[3]
  SPR response relative to CyRP-62 (times higher): 9 times
[4]
  effect on time course of octanol-induced uncoupling in Cx40 (in words): did not modify the time course
Recombinant Cx40CT
  SPR response with Cx40CT (in words): only a minor SPR deflection
Recombinant Cx43CT
  interaction with Cx43CT by 15N-HSQC resonance shifts (in words): confirm the binding of Cx43CT to CyRP-71

## RRNYRRNY
[2]; octanol-induced uncoupling, peptide in pipette
  cell pairs in which the peptide failed to prevent uncoupling: approximately 40%
[2]; peptide in patch pipette (100 μM), 10 minutes of octanol
  cell pairs remaining coupled at the end of octanol exposure (number of pairs): four of the six

## RRPPYQ (backbone-cyclized (cyclo-, Q6 joined to R1)) [CyRP-62 (cyclo-RRPPYQ)]
[1]
  SPR response amplitude normalized by molecular weight (125 μM): 3.71 a.u.
